We go through one molecule from patent publication US8772321B2, “Heteroannelated anthraquinone derivatives for inhibiting cancers” (National Defense Medical Center, priority 2008, dated 2014).

The subject of one experiment is 786-0. Description: NCI 60-cell one dose screen. The note with it: 786-0 (Renal cancer); 10^−5M. The class given is cell-based, human. As to the method: (§1) NSC745885 was studied as a prototype for anti-proliferative activity against human cancer cell lines in NCI Drug Screen Program (Table 1, below). NSC745885 was evaluated in the full panel of human tumor cell lines derived from nine cancer cell types (leukemia, non-small cell lung cancer, colon cancer, CNS cancer, prostate cancer, melanoma, ovarian cancer, renal cancer and breast cancer). Each subpanel uses several cell lines and dose-response curves were drawn against the decadic logarithm (log 10) of the corresponding drug concentrations for each cell line by the subpanel group. They were also evaluated in the 60 cell line panel and anticancer assay was performed in accordance with the protocol of developmental therapeutics program (one dose mean graph). Results for each compound were reported as the proliferation percentage of the treated cells with that of the untreated control cells being 100. For each of these parameters the averaged values of mean graph midpoint (MG_MID) were calculated.

The next experiment deals with COLO 205. The experiment in a line: NCI 60-cell one dose screen. In kind it is cell-based, human. The note with it: COLO 205 (Colon cancer); 10^−5M. As to the method:
as §1

The subject of a further experiment is DU-145. The experiment in a line: NCI 60-cell one dose screen. The class given is cell-based, human. The settings on record: DU-145 (Prostate cancer); 10^−5M. As for the experimental part:
as §1

Another experiment deals with HCC-2998. The experiment in a line: NCI 60-cell one dose screen. The settings on record: HCC-2998 (Colon cancer); 10^−5M. In kind it is cell-based, human. As to the method:
as §1

Another experiment has as its system HCT-15. Description: NCI 60-cell one dose screen. The settings on record: HCT-15 (Colon cancer); 10^−5M. In kind it is cell-based, human. As to the method: as §1
The test system of a further experiment is K-562. The experiment in a line: NCI 60-cell one dose screen. In kind it is cell-based, human. The note with it: K-562 (Leukemia); 10^−5M. As to the method:
as §1

The next experiment deals with MOLT-4. The experiment in a line: NCI 60-cell one dose screen. The note with it: MOLT-4 (Leukemia); 10^−5M. The class given is cell-based, human. As for the experimental part:
as §1

Another experiment concerns NCI-H226. The experiment in a line: NCI 60-cell one dose screen. The settings on record: NCI-H226 (Non-small cell lung cancer); 10^−5M. In kind it is cell-based, human. As to the method:
as §1

In another experiment the test system is NCI-H23. Description: NCI 60-cell one dose screen. The class given is cell-based, human. The note with it: NCI-H23 (Non-small cell lung cancer); 10^−5M. As to the method:
as §1

For another experiment, the system named is NCI-H460. Description: NCI 60-cell one dose screen. The class given is cell-based, human. The settings on record: NCI-H460 (Non-small cell lung cancer); 10^−5M. As for the experimental part:
as §1

The subject of the next experiment is NCI/ADR-RES. Description: NCI 60-cell one dose screen. In kind it is cell-based, human. The settings on record: NCI/ADR-RES (Ovarian cancer); 10^−5M. As for the experimental part: as §1
The subject of a further experiment is OVCAR-8. The experiment in a line: NCI 60-cell one dose screen. In kind it is cell-based, human. The settings on record: OVCAR-8 (Ovarian cancer); 10^−5M. As to the method:
as §1

A further experiment has as its system UACC-257. The experiment in a line: NCI 60-cell one dose screen. The class given is cell-based, human. The settings on record: UACC-257 (Melanoma); 10^−5M. As to the method:
as §1

Another experiment deals with HL-60(TB). The experiment in a line: NCI 60-cell panel dose-response. In kind it is cell-based, human. The settings on record: HL-60(TB) (Leukemia).
The subject of experiment [1] is HeLa cells. The experiment in a line: Autophagy: LC3B-II immunoblot. In kind it is cell-based, human. The settings on record: 12 hours. As for the experimental part: Cell lysates were prepared in lysis buffer (100 mM Tris-HCl pH 8.0, 150 mM NaCl, 0.1% SDS, and 1% Triton 100) at 4° C., separated by sodium dodecyl sulfate-polyacrylamide gel electrophoresis (SDS-PAGE), and then transferred onto a polyvinylidine difluoride membrane (Millipore, USA). Proteins were detected using antibodies against alpha actinin (ACTN), proliferating cell nuclear antigen (PCNA), p53, p21, cyclin B1, and cyclin D1 (Santa Cruz Biotechnology, USA), YH2A.X (EP854(2)Y, Epitomics, USA), cleaved caspase 3, cleaved poly(ADP-ribose) polymerase (PARP) and LC3B-II (Cell signaling, USA).
Altered intracellular localization of LC3B (LC3B-I) and increased electrophoretic mobility of LC3B (LC3B-II) are correlated with recruitment to autophagic membranes and can be used as molecular markers for autophagic activation.
In FIG. 5A, HeLa cells were treated with the indicated concentrations of DXR, NSC745885 for 12 hours, and then cell lysates were analyzed by immunoblot using antibodies directed against LC3. The results are representative of three independent experiments.

The subject of experiment [2] is HeLa cells. Description: Senescence-associated β-galactosidase staining. In kind it is cell-based, human. The note with it: 2.5 μM for 24 hours, stained after 48 hours. As for the experimental part: Cultured cells were washed in PBS (pH 7.4), incubated in a solution of 2% formaldehyde/0.2% glutaraldehyde, and then incubated overnight at 37° C. in freshly prepared staining solution consisting of 1 mg/mL X-gal (5-bromo-4-chloro-3-indolyl-β-D-galactoside), 5 mM K3Fe(CN)6, 5 mM K4Fe(CN)6, 150 mM NaCl and 2 mM MgCl2 in 40 mM citric acid/sodium phosphate, pH 6.0. Following this incubation, cells were washed with water and examined by light microscopy at 200× magnification.
In FIGS. 5C and 5D, HeLa cells were incubated with 2.5 μM NSC745885 for 24 hours. After 48 hours, cells were subjected to SA-β-galactosidase staining (FIG. 5C) and approximately 100 stained cells were quantified (*P<0.05; ** P<0.01; *** P<0.005). NSC745885 induced senescence at a rate of 25% (P=0.0085 compared to DMSO). (FIG. 5D) LC3B-I fragments were observed when the cells were exposed to the drug for longer period of time (FIG. 5A, panel labeled as LE). […] We also treated Hela cells with the autophagy inducer spermidine (Spd) and vehicle (DMSO), which act as the positive and the negative control, respectively.

For another experiment, the system named is HeLa/shp53 cells. The experiment in a line: MTT cell viability assay, HeLa vs HeLa/shp53. The settings on record: endogenous p53 silenced; 24, 48, 72 hours. The class given is cell-based, human. As to the method: HeLa and HeLa/shp53 cells were grown in DMEM supplemented with 10% charcoal/dextran-treated fetal bovine serum. Cells in a 24-well plate were transfected with jetPEI (PolyPlus-transfection, France) according to the manufacturer's protocol; total DNA was adjusted to 1.0 μg by the addition of empty vector DNA. Luciferase assays were performed using the Promega Luciferase Assay kit, and the measurement was expressed numerically as relative light units (RLU). Luciferase activities were presented as means and standard deviation of two transfected sets. […] Instead, the reproducibility of the observed effects on luciferase activity was determined in multiple independent transfection experiments.
To understand the functional role that endogenous p53 plays in the cytotoxic effects of DXR and NSC745885, we measured cell viability of HeLa or HeLa/shp53 cells using MTT cell viability assay. In this assay, endogenous p53 is silenced, both in the presence or absence of the drugs (FIG. 8). […]
A general note: Formazan colour is commonly taken as a measure of viable cells.

The next experiment deals with OVCAR-3. The experiment in a line: NCI 60-cell panel dose-response. The note with it: Homo sapiens, OVCAR-3, read-out: LC50.

One may read the GI50 as the concentration that inhibits growth by half. For orientation: TGI means the concentration giving total growth inhibition. A lower TGI goes with more potent growth arrest. For the molecule `O=C1c2ccccc2C(=O)c2c1ccc1nsnc21` [NSC745885, anthra[2,1-c][1,2,5]thiadiazole-6,11-dione], the proliferation percentage is −25.98% with 786-0; 111.54% in the experiment with COLO 205; 40.76% in the experiment with DU-145; −0.74% in the experiment on HCC-2998; 1.48% with HCT-15; 49.61% with K-562. The proliferation percentage in the experiment on MOLT-4 is −40.09%; in the experiment with NCI-H226, 97.80%; with NCI-H23, 16.07%; with NCI-H460 it was 77.41%; in the experiment on NCI/ADR-RES it was −2.53%; in the experiment on OVCAR-8 it was −10.07%. In the experiment on UACC-257, the proliferation percentage is recorded as −83.07%. Further, the GI50 in the experiment on HL-60(TB) worked out at 160 nM. The molecule also yielded a TGI in the experiment on HL-60(TB) of 400 nM. Further, the “LC3B-II fragment formation (autophagic activation)” value in the experiment on HeLa cells [1] was “LC3B-II fragment formation”. Besides, the “senescence rate (SA-β-galactosidase staining)” value with HeLa cells [2] amounted to 25%. Besides, the “sensitivity (cell viability, MTT) in HeLa/shp53 versus HeLa cells” value in the experiment on HeLa/shp53 cells is “significantly enhanced”. Besides, the CC50 with OVCAR-3 is 11100 nM.
